Read-outs that look alike come from different tables or passages of the source.
What was measured:
[1] = cited from earlier work
[2] = 0.2 mg QD, after 8 weeks (Zhang et al.); cited from earlier work
[3] = cited from earlier work; remark: listed apart in the source
[4] = Focused analysis of published BPH/LUTS studies: risk of abnormal ejaculation (anejaculation or significantly reduced ejaculate) with tamsulosin; type: in vivo, human
Experimental: To objectively determine an effective tamsulosin dose for treating premature ejaculation in patients without benign prostatic hypertrophy (BPH), a focused analysis of relevant well designed research studies that examined the abnormal ejaculation side effects of tamsulosin in BPH treatment based on combined data derived from multiple sources was conducted (www.accessdata.fda.gov, n.d.; Soliman et al, 2023; Shim et al., 2016). […] These studies focused on evaluating tamsulosin treatment outcomes in patients with BPH and lower urinary tract symptoms (LUTS). The analysis leveraged the identical mechanism of action of tamsulosin in both BPH/LUTS and premature ejaculation with respect to non-vascular smooth muscle relaxation in the genitourinary tract.
The graph plots administered tamsulosin quantity in mg on the x-axis against the calculated percentage risks of these dysfunctional sequelae on the y-axis.
Further, the FIG. 4 illustrates test data on calculated risk of abnormal or adverse ejaculatory side effects at different dosages. […] Quantitative data points are shown for tamsulosin at doses of 0.8 mg, 0.4 mg, and 0.2 mg taken either on a daily (QD) basis or every other day (QOD).

risk of ejaculatory sequelae ([4]; 0.4 mg QOD (every other day), calculated from 5-fold reduction): 1.68% | drop in abnormal ejaculatory risk likelihood ([4]; dose reduction 0.4 mg QD to 0.2 mg QD): ~2.15 fold | reduction of projected abnormal ejaculatory risk ([4]; halving 0.8 mg QD to 0.4 mg QD): 53.6%
SMILES: CCOc1ccccc1OCCN[C@H](C)Cc1ccc(OC)c(S(N)(=O)=O)c1 [tamsulosin]
risk of abnormal or adverse ejaculatory side effects ([1]; 0.4 mg QD (daily)): 8.4% | abnormal ejaculatory risk reduction ([1]; 0.4 mg converted from QD to QOD (Soliman et al.)): 5 fold | risk of abnormal or adverse ejaculatory side effects ([1]; 0.8 mg QD (daily)): 18.1% | increase of intravaginal ejaculation latency time (IELT) [2]: 1.14 min | risk of adverse events [2]: 2.6% | efficacy for mild to moderate BPH symptoms ([3]; 0.2 mg QD (Shim et al.)): effective | therapeutic efficacy of QD dosing versus alternating day dosing ([3]; QD vs alternating day (Soliman et al.)): clinically similar
